Laboratory results reported in patent US20130217735A1, “FUNGICIDAL COMPOSITIONS AND METHODS OF USE” (Agri-Food and BioSciences Institute, priority 2010, published 2013).
Read-outs that look alike come from different tables or passages of the source.

What was measured:
P. erythroseptica = experiment: Example 8 sensitivity testing of potato tuber pathogens to imazalil derivatives (EC50); assay type: cell-based, Phytophthora erythroseptica; details: for EC50: Trial B, read-out: EC50 (concentration required to reduce mycelial growth by 50%)
Procedure: (§1) For tests with imazalil sulphate and imazalilium docusate prepared according to Trial B, imazalil sulphate (0.5 g, drug pure, Janssen) was dissolved in sterile water (100 ml) to give a stock solution (12.7 mM). […] Dilutions (alternately five-fold and two-fold) of each of these stock solutions were prepared (in water for imazalil sulphate and in ethanol for imazalilium docusate) to produce a dilution series (12.7, 2.54, 1.27, 0.25, and 0.13 mM).
(§2) Log-probability plots of the percentage reduction in growth against the concentration were used to estimate EC50 values (the concentration required to reduce mycelial growth by 50%) (see Table 6).

Phoma foveata = experiment: as above; assay type: cell-based; details: isolate Phoma foveata BL2/5 T3, Trial B, read-out: EC50 (concentration required to reduce mycelial growth by 50%)
Procedure: as §1, §2

F. culmorum = experiment: as above; assay type: cell-based; details: isolate F. culmorum P13, Trial B, read-out: EC50 (concentration required to reduce mycelial growth by 50%)
Procedure: as §1, §2

Phoma exigua = experiment: as above; assay type: cell-based; details: isolate Phoma exigua 9.1; Trial B; read-out: EC50 (concentration required to reduce mycelial growth by 50%)
Procedure: as §1, §2

F. sambucinum = experiment: as above; assay type: cell-based; details: Trial B, read-out: EC50 (concentration required to reduce mycelial growth by 50%)
Procedure: as §1, §2

F. coeruleum = experiment: as above; assay type: cell-based; details: isolate F. coeruleum ex B7/06 T8; Trial B; read-out: EC50 (concentration required to reduce mycelial growth by 50%)
Procedure: as §1, §2

[1] = Thermogravimetric analysis (thermal stability); assay type: physicochemical; details: TGA under nitrogen, 5° C./min
Procedure: Thermogravimetric analysis was performed on a Mettler Toledo Star^e TGA/DSC (Leicester, UK) under nitrogen. Samples between 5 and 10 mg were placed in open alumina pans and were heated from 25° C. to 600° C. with a heating rate of 5° C./min. Decomposition temperatures (T5% dec) were reported from onset to 5 wt % mass loss Infrared spectra were recorded as neat samples from 4000-450 cm^−1 on a Perkin-Elmer Spectrum 65 FT-IR spectrometer fitted with a Universal ATR Sampling Accessory. Differential scanning calorimetry (DSC) was performed on a Mettler Toledo Star^e DSC (Leicester, UK) under nitrogen. Samples between 5 and 10 mg were heated from 25° C. to 110° C. at a heating rate of 5° C./min followed by a 5 min isotherm. A cooling rate of 5° C./min to −70° C. was followed by a 5 min isotherm at −70° C., and the cycle was repeated twice. A melting transition was observed as single-event peak in the first run. […] Transitions above ambient temperature were confirmed optically on a Stuart SMP3 melting point apparatus.

[2] = test system: Phytophthora erythroseptica; experiment: Example 7 sensitivity testing of potato tuber pathogens to thiabendazole derivatives; assay type: cell-based; details: in words; Table 5
Procedure: In vitro tests of the IL thiabendazolium docusate were performed in comparison to the neutral fungicide using selected isolates of Fusarium spp., the cause of potato dry rot. F. coeruleum and F. culmorum are sensitive to thiabendazole whereas isolates of F. sambucinum are frequently resistant. Isolates of Phoma spp., the cause of gangrene, and Phytophthora erythroseptica, the cause of pink rot, were also tested. All except F. sambucinum ex SASA were isolated in a laboratory. F. sambucinum ex SASA was supplied by SASA (Science and Advice for Scottish Agriculture, Roddinglaw Road, Edinburgh, EH12 9F, UK).
In each test three replicate plates for each organism per concentration were used and tests were repeated at least once.

[3] = isolate P. erythroseptica BL2/08 P31

## C=CCOC(Cn1ccnc1)c1ccc(Cl)cc1Cl (stereo not drawn) [Imazalil, imazalil, reference compound]
P. erythroseptica; Phytophthora erythroseptica, isolate P. erythroseptica Rooster Eire
  EC50: > 127 µM
P. erythroseptica; [3]
  EC50: > 127 µM
Phoma foveata; Boeremia foveata
  EC50: 2.7 µM
F. culmorum; Fusarium culmorum
  EC50: 0.4 µM
Phoma exigua
  EC50: 5.6 µM
F. sambucinum; Fusarium sambucinum, isolate F. sambucinum L'gall 11
  EC50: 1.8 µM
F. sambucinum; Fusarium sambucinum, isolate F. sambucinum ex SASA, log-probability plot
  EC50: 0.7 µM
F. coeruleum
  EC50: 12.9 µM

## C=CCOC(Cn1ccnc1)c1ccc(Cl)cc1Cl (stereo not drawn) [Imazalilium docusate, imazalilium docusate]
[1]
  T5% onset (decomposition temperature, onset to 5 wt % mass loss): 208.8 °C
P. erythroseptica; in words, Table 6
  activity against P. erythroseptica: showed some activity
P. erythroseptica; [3]
  EC50: 38.4 µM
P. erythroseptica; isolate P. erythroseptica Rooster Eire
  EC50: 100 µM
Phoma foveata
  EC50: 4.6 µM
F. culmorum
  EC50: 0.4 µM
Phoma exigua
  EC50: 7.3 µM
F. sambucinum; isolate F. sambucinum L'gall 11
  EC50: 2.6 µM
F. sambucinum; isolate F. sambucinum ex SASA, log-probability plot
  EC50: 1 µM
F. coeruleum
  EC50: 19.2 µM

## c1ccc2[nH]c(-c3cscn3)nc2c1 [TBZ docusate, thiabendazolium docusate]
[2]
  activity against P. erythroseptica compared with thiabendazole alone: more active
[1]
  T5% onset (decomposition temperature, onset to 5 wt % mass loss): 252.0 °C

## CCn1cc[n+](C)c1.CCn1cc[n+](C)c1.S=C([S-])NCCNC(=S)[S-] [[C2mim]2ebdtc, di(1-ethyl-3-methylimidazolium)ethylenbis-(dithiocarbamate)]
[1]
  T5% onset (decomposition temperature, onset to 5 wt % mass loss): 147.1
